Read-outs that look alike come from different tables or passages of the source.
Experiments:
Nitrosomonas europaea = test: Nitrification inhibition assay with Nitrosomonas europaea (nitrite level after 24 h); format: cell-based; details: for IC50 / activity at 100 µM / activity at 50 µM: Nitrosomonas europaea; for activity at 100 µM / activity at 50 µM: 24 h, read-out: Nitrification (%) at tested concentration (0 = maximum activity); for activity at 50 µM: tested concentration 50 μM
Experimental: (§1) The compounds of formula (I) and (II) and (III)/(IV) were tested for their nitrification inhibition effect in two screens, using assays with the nitrifying bacteria N. europaea and N. multiformis. In practice, ammonium and candidate nitrification inhibitors (at 100 μM) were added to a dense bacterial culture in multiwell culture plates and after 24 h of incubation, the nitrite level was measured. To normalize for differences between batches of cultures and multiwell culture plates, for each well a relative nitrification was calculated that was normalized towards both the negative and positive controls (see “Material and Methods” below for full details).
(§2) Nitrite (NO2−) was measured using the Griess reagent (Product number: G4410, Griess reagent (modified), Sigma-Aldrich). Equal volumes of the sample or a diluted sample and the Griess reagent were mixed a transparent flat bottom multi-well plate and incubated in the dark at room temperature for 10 minutes. Absorbance values at 540 nm were measured spectrophotometrically (EnVision, Perkin Elmer®) and used to calculate the [NO2−] by use of a standard curve.
To prepare a high-throughput nitrification inhibition assay using N. europaea, late-log phase cultures were subcultivated two days before the assay. Just before the assay, the cultures were 5 times overconcentrated with fresh growth medium after centrifugation (4000 rpm, 15 min, 5° C.) in 50 mL centrifuge tubes (Cat. No. 430829, CentriStar™ Conical Centrifuge Tubes, Corning®). Per batch, all the cultures were pooled in one sterile Schott bottle and subsequently dispensed into 384-well plates (Cat. No. 781086, CELL-STAR® plate, Greiner Bio-One; 50 μl/well) by use of a dispenser (Multidrop™ Combi Reagent Dispenser, Thermo Scientific™) that was first flushed with growth medium. Specifically for the high-throughput screen for new nitrification inhibitors, 0.5 μl of 99.99% DMSO (negative control—final concentration 1%) was added to the outer two columns on the left side of the plate and 0.5 μl of 10 mM DMP (3,4-dimethylpyrazole, positive control—final concentration 100 μM) was added to the outer two columns on the right side manually. Finally, 0.5 μl of candidate nitrification inhibitors (5 mM stock solutions in 99.99% DMSO—final concentration 50 μM) were added to the central wells using a pin tool on a Tecan robot (Freedom EVO®, Tecan). In between additions, the pins were washed in sequence with 99.5% DMSO, MilliQ water and 100% ethanol and air-dried. All plates were separately wrapped in Parafilm. Stacks of 4 plates were put on top of a 96-well plate filled with 100 μl MilliQ per well, covered with aluminum foil and shaken at 150 rpm at 28° C. 24 h later, NO2− production was assessed. For this, the samples were first 200 times diluted by pipetting 1.5 μl of samples into 300 μl of fresh growth medium in intermediate plates (Cat. No. 353077, Falcon® 96-well Clear Round Bottom Microplate, Corning®), to then mix 15 μl of the diluted samples with 15 μl Griess reagent in the wells of a transparent, flat bottom 384-well plate (Cat. No. X^7001, Low Profile Microplate, Molecular Devices) that was measured spectrophotometrically at 540 nm (EnVision, Perkin Elmer®).
(§3) To assess the efficacy of the compounds (in terms of nitrification inhibition) and to enable comparison between plates and batches of cultures, we calculated the relative nitrification. More in detail, all nitrite results were normalized towards both a negative control, containing no compound, and a positive control, containing the benchmark (100 μM DMP), using Equation 1. This normalization was done per multi-well plate and each plate contained 32 positive and 32 negative controls.
IC50 values, that is the concentration that inhibits 50% of the nitrification, were calculated after fitting a logistic curve to 8-point dose response data, using doses between 2 and 100 μM with 1.75 fold steps. […]

Nitrosospira multiformis = test: Nitrification inhibition assay with Nitrosospira multiformis (nitrite level after 24 h); format: cell-based; details: for IC50 / activity at 100 µM / activity at 50 µM: Nitrosospira multiformis; for activity at 100 µM / activity at 50 µM: 24 h, read-out: Nitrification at tested concentration (0 = maximum activity); for activity at 50 µM: tested concentration 50 μM
Experimental: as §1, §2
Cultures were first 5 times overconcentrated in fresh 181-medium by centrifugation (4000 rpm, 15 min, 5° C.) in 50 mL centrifuge tubes (Cat. No. 430829, CentriStar™ Conical Centrifuge Tubes, Corning®). Per batch, all the cultures were pooled in one sterile Schott bottle and subsequently dispensed in 384-well plates (Cat. No. 781086, CELLSTAR® plate, Greiner BioOne; 50 μl/well) by use of a dispenser (Multidrop™ Combi Reagent Dispenser, Thermo Scientific™) that was first flushed with 181-medium. 0.5 μl of 99.99% DMSO (negative control—final concentration […] was added to the outer two columns on the left side of the plate and 0.5 μl of 10 mM DMP (3,4-dimethylpyrazole, positive control—final concentration 100 μM) was added to the outer two columns on the right side manually. Finally, 0.5 μl of candidate nitrification inhibitors (5 mM stock solutions in 99.99% DMSO—final concentration 50 μM) were added to the central wells using a pin tool on a Tecan robot (Freedom EVO®, Tecan). In between additions, the pins were washed in sequence with 99.5% DMSO, MilliQ water and 100% ethanol and air-dried. All plates were separately wrapped in Parafilm. Stacks of 4 plates were put on top of a 96-well plate filled with 100 μl MilliQ per well, covered with aluminum foil and shaken (±150 rpm) at 30° C. 24 h later, NO2− production was assessed. For this, the samples were first 100 times diluted by pipetting 3 μl of samples into 300 μl fresh growth medium in intermediate plates (Cat. No. 353077, Falcon® 96-well Clear Round Bottom Microplate, Corning®) to then mix 15 μl of the diluted samples with 15 μl Griess reagent in the wells of a transparent, flat bottom 384-well plate (Cat. No. X^7001, Low Profile Microplate, Molecular Devices) that was measured spectrophotometrically at 540 nm (EnVision, Perkin Elmer®).
as §3
IC50 values, that is the concentration that inhibits 50% of the nitrification, were calculated after fitting a logistic curve to 8-point dose response data, using doses between 2 and 100 μM with 1.75 fold steps. If a concentration of 2 μM already inhibited nitrification, the IC50 value could not be calculated. In that case, IC50 values represent the dose that gives inhibition closest to 50%.
The compounds of formula (I) and (II) were tested for their nitrification inhibition effect in two screens, using assays with the nitrifying bacteria N. europaea and N. multiformis. […]

[1] = 8-point dose response, 2 to 100 μM, read-out: IC50
[2] = tested concentration 100 μM, normalized to DMSO (100%) and 100 μM DMP (0%)
[3] = normalized to DMSO (100%) and 100 μM DMP (0%)

| SMILES | IC50 (Nitrosomonas europaea; [1]) [µM] | activity at 100 µM (Nitrosomonas europaea; [2]) [%] | IC50 (Nitrosospira multiformis; [1]) [µM] | activity at 100 µM (Nitrosospira multiformis; [2]) [%] | other results |
| --- | --- | --- | --- | --- | --- |
| S=c1[nH]c(-c2ccccc2)cs1 [Example 30] | 42 | 21 | 36 | 0 | – |
| Cc1[nH]c(=S)sc1C [Example 35] | 43 | 12 | 3 | 0 | – |
| O=C(CSC1=NCCS1)NCc1cc(Br)cs1 [Example 11] | – | – | < 20 | 0 | – |
| COc1ccccc1Nc1nc(N)nc(CSC2=NCCS2)n1 [Example 20] | – | – | – | – | activity at 50 µM (Nitrosomonas europaea; [3]): 79%; activity at 50 µM (Nitrosospira multiformis; [3]): 42% |
| CSc1ncc(Br)s1 [Example 33] | > 100 | 68 | > 100 | 64 | – |
| COc1cccc(-c2nc(CSC3=NCCS3)cs2)c1OC [Example 12] | < 100 | 0 | < 20 | 11 | – |
| NCCCSc1nccs1 [Example 37] | > 100 | 58 | 44 | 7 | – |
| CCSc1nc(CC(=O)O)cs1 [Example 27] | > 100 | 62 | > 100 | 77 | – |
| CC1CNC(=S)S1 (centres unmarked) [Example 4] | – | – | – | – | IC50 (Nitrosomonas europaea): < 2 µM; activity at 100 µM (Nitrosomonas europaea): 0%; IC50 (Nitrosospira multiformis): < 2 µM; activity at 100 µM (Nitrosospira multiformis): 0% |
| C=CC1CNC(=S)O1 (centres unmarked) [Example 44] | 2 | 0 | 24 | 0 | – |
| S=c1[nH]cc(Cc2ccccc2)s1 [Example 28] | > 100 | 65 | 12 | 0 | – |
| CSC1=NCCO1 [Example 41] | – | – | – | – | IC50 (Nitrosomonas europaea): > 100 µM; activity at 100 µM (Nitrosomonas europaea): 88%; IC50 (Nitrosospira multiformis): > 100 µM; activity at 100 µM (Nitrosospira multiformis): 68% |
| O=C1NCCS1 [Example 8] | < 100 | 47 | < 100 | 31 | – |
| CSc1nc(Br)cs1 [Example 32] | < 100 | 46 | > 100 | 75 | – |
| Cc1csc(=S)[nH]1 [Example 26, 4-methyl-1,3-thiazole-2-thiol] | 38 | 0 | 2.1 | 0 | Average nitrification [%] in Nitrosomonas europaea (Nitrosomonas europaea; 2 μM): 91%; Average nitrification [%] in Nitrosomonas europaea (Nitrosomonas europaea; 3.5 μM): 84%; Average nitrification [%] in Nitrosomonas europaea (Nitrosomonas europaea; 6 μM): 80%; Average nitrification [%] in Nitrosomonas europaea (Nitrosomonas europaea; 11 μM): 83%; Average nitrification [%] in Nitrosomonas europaea (Nitrosomonas europaea; 19 μM): 78%; Average nitrification [%] in Nitrosomonas europaea (Nitrosomonas europaea; 33 μM): 71%; Average nitrification [%] in Nitrosomonas europaea (Nitrosomonas europaea; 57 μM): 50%; Average nitrification [%] in Nitrosomonas europaea (Nitrosomonas europaea; 100 μM): 0%; Average nitrification [%] in Nitrosospira multiformis (Nitrosospira multiformis; 2 μM): 51%; Average nitrification [%] in Nitrosospira multiformis (Nitrosospira multiformis; 3.5 μM): 27%; Average nitrification [%] in Nitrosospira multiformis (Nitrosospira multiformis; 6 μM): 6%; Average nitrification [%] in Nitrosospira multiformis (Nitrosospira multiformis; 11 μM): 2%; Average nitrification [%] in Nitrosospira multiformis (Nitrosospira multiformis; 19 μM): 0%; Average nitrification [%] in Nitrosospira multiformis (Nitrosospira multiformis; 33 μM): 0%; Average nitrification [%] in Nitrosospira multiformis (Nitrosospira multiformis; 57 μM): 0%; Average nitrification [%] in Nitrosospira multiformis (Nitrosospira multiformis; 100 μM): 0% |
| COc1cc(C(=O)CSC2=NCCS2)cc(OC)c1OC [Example 15] | – | – | – | – | activity at 50 µM (Nitrosomonas europaea; [3]): 78%; activity at 50 µM (Nitrosospira multiformis; [3]): 13% |
| CC1(C)COC(=S)N1 [Example 43] | 7 | 0 | 20 | 0 | – |
| CC1CSC(=S)N1 (centres unmarked) [Example 3] | < 3.5 | 0 | < 2 | 0 | – |
| Cc1csc(SC2CCCCC2)n1 [Example 38] | > 100 | 92 | > 100 | 53 | – |
| CC1CSC(SCc2cc(=O)n3ccsc3n2)=N1 (centres unmarked) [Example 14] | < 57 | 0 | < 20 | 0 | – |
| CCN(CN1CCSC1=S)C1CC1 [Example 2] | < 2 | 0 | < 2 | 0 | – |
| CSc1nc(N)c(C#N)s1 [Example 29] | 28 | 0 | > 100 | 61 | – |
| Oc1csc(=S)[nH]1 [Example 31] | 14 | 12 | 16 | 11 | – |
| CCn1c(CSC2=NCCS2)nc2cc(F)ccc21 [Example 13] | – | – | – | – | activity at 50 µM (Nitrosomonas europaea; [3]): 73%; activity at 50 µM (Nitrosospira multiformis; [3]): 0% |
| S=c1[nH]c(C2CC2)cs1 [Example 34] | 52 | 0 | 11 | 0 | – |
| S=C1NC(c2ccccc2)CO1 (centres unmarked) [Example 42] | 68 | 40 | < 57 | 12 | – |
| S=c1[nH]cco1 [Example 40] | 4 | 0 | 3 | 0 | – |
| S=c1[nH]c(C2CCCCC2)cs1 [Example 36] | 16 | 0 | 49 | 15 | – |
| Cc1cccc(CSC2=NCCS2)c1 [Example 17] | – | – | – | – | activity at 50 µM (Nitrosomonas europaea; [3]): 100%; activity at 50 µM (Nitrosospira multiformis; [3]): 36% |

From patent US20230416168A1 (EUROCHEM ANTWERPEN, priority 2020, published 2023)
